pEC50: −log10 of the molar value.
Columns and labels:
[1] = tested on: E. coli-induced placental inflammation; test: E. coli-induced placental inflammation model of preterm birth; format: in vivo; conditions: same dosage as in LPS model
Text: Using the E. coli-induced placental inflammation model and methods similar to those described in Spencer et al. (PLoS One, 16(12): e0260370, 2021 doi: 10.1371/journal.pone.0260370), nitazoxanide therapy will be tested using the same dosage as above and in Purandare et al. (Placenta 140:66-71, 8 Jul. 2023; Purandare et al., bioRxiv, Feb. 1, 2023).

[2] = tested on: MNRR1; test: MNRR1-luciferase reporter assay in HTR cells; format: cell-based; conditions: Homo sapiens; HTR8 cells, 24 h, relative to vehicle (DMSO); read-out: half-maximal effective concentration (EC50), activation of MNRR1 reporter
Description: (§1) FIGS. 1A-1D. Nitazoxanide's anti-inflammatory effects are via transcriptional activation of MNRR1. (FIG. 1A) Results of a screen of ˜2400 FDA-approved drugs and natural compounds identified to transcriptionally activate (>1), inhibit (<1), or not affect (=1) MNRR1. Each circle represents one drug and the MNRR1 activator (nitazoxanide (N)) has been highlighted in green. (FIG. 1B) Equal numbers of HTR cells overexpressing the MNRR1-luciferase reporter were plated on a 96 well plate and treated with increasing amounts of nitazoxanide or vehicle (DMSO) for 24 h. EC50 was calculated using the activation of MNRR1 reporter relative to vehicle treated cells using the Quest Graph^TM EC50 Calculator. (FIG. 1C) TNF transcript levels were measured in human placental cells. Actin was used as a housekeeping gene for normalization. […]
Transfections and luciferase reporter assays: HTR cells were transfected with the indicated plasmids, using TransFast transfection reagent (Promega, Madison, WI, USA) according to the manufacturer's protocol as previously described (Purandare et al., iScience, 25: 105342, 2022). […] EC50 was calculated by using the Quest Graph™ EC50 Calculator (AAT Bioquest, Inc., on the World Wide Web at aatbio.com/tools/ec50-calculator).

[3] = tested on: TNF transcription; test: TNF transcript levels in LPS-treated HTR8 cells (real-time PCR); format: cell-based, human
Description: as §1, with “normalization. Abbreviations: WT, MNRR1-WT; MNRR1-KO, knockout of MNRR1; C, control (water); LPS, lipopolysaccharide; N, nitazoxanide; KO+WT-MNRR1, knockout cells +MNRR1−WT overexpression. n=4 biological replicates; significance: *, p-value<0.05; ns is non-significant.” for “normalization.”
Real-time polymerase chain reaction: Total cellular RNA was extracted from mouse placental tissues or HTR8 cells by using a RNeasy Plus Mini Kit (Qiagen, Germantown, MD, USA), according to the manufacturer's instructions. […] Transcript levels were measured by real-time PCR by using SYBR green on an ABI 7500 system. […]

[4] = tested on: MELAS cybrid cells; test: Mitophagy markers in MELAS cybrid cells (immunoblot); format: cell-based, human; conditions: 10 μM, 48 h
Description: FIGS. 7A-7E: MNRR1 activation by tizoxanide enhances mtDNA biogenesis and mitophagy to shift heteroplasmy in MELAS cells. FIG. 7A: Oxygen consumption measured from MELAS cybrid cells treated with vehicle (DMSO) or tizoxanide (10 μM) for 48 h (n=4 biological replicates, error bars represent SE). FIG. 7B: Haelll restriction enzyme digestion of a PCR-amplified fragment of mtDNA harboring the m.3243A>G mutation from DW7 cells treated with vehicle (DMSO) or tizoxanide (10 μM) for 144 h. […] FIG. 7C: Genes identified using qPCR of MELAS cybrid cells stably overexpressing EV or MNRR1. FIG. 7D: MtDNA levels are shown relative to nuclear DNA (nDNA) (GAPDH) (n=5 biological replicates, error bars represent SE). FIG. 7E: Equal amounts of MELAS cybrid cell lysates, treated with vehicle (DMSO) or tizoxanide (10 μM) for 48 h, were separated on an SDS-PAGE gel and probed for PGC1a, PINK1, LC3 A/B, MNRR1, and Tubulin. […]
Immunoblotting: Immunoblotting was performed as described previously. […] The clear supernatants were transferred to new tubes and quantified using the Bradford reagent with BSA as standard (BioRad, Hercules. CA). […] For detection after immunoblotting, the SuperSignal™ West Pico PLUS substrate (ThermoFisher, Waltham, MA) was used to generate chemiluminescence signal, which was detected with X-Ray film (RadTech, Vassar, MI).

## CC(=O)Oc1ccccc1C(=O)Nc1ncc([N+](=O)[O-])s1 [nitazoxanide, Nitazoxanide]
[1]
  reducing or preventing pre-term birth: effective in reducing or preventing pre-term birth
[2]
  pEC50: 6.94
[3]; HTR8 cells, MNRR1-WT
  LPS-induced activation of TNF transcription: reduced to control levels in an MNRR1-dependent fashion
[3]; MNRR1 knockout cells
  anti-inflammatory benefit (TNF transcript) in MNRR1 knockout cells: no nitazoxanide-mediated benefit

## O=C(Nc1ncc([N+](=O)[O-])s1)c1ccccc1O [tizoxanide, Tizoxanide]
[4]
  mitophagy (PINK1, LC3A, LC3B, pSer-65 ubiquitin): Increased mitophagy
